Test results from patent publication US9125913B2, “Bcl-2-selective apoptosis-inducing agents for the treatment of cancer and immune diseases” (AbbVie Inc., priority 2008, dated 2015).

Test system: GST-Bcl-2
Assay: TR-FRET binding assay, Bcl-2
Details: TR-FRET Ki values
Protocol: Tb-anti-GST antibody was purchased from Invitrogen (Catalog No. PV4216).
Representative compounds were serially diluted in dimethyl sulfoxide (DMSO) starting at 50 μM (2× starting concentration; 10% DMSO) and 10 μL were transferred into a 384-well plate.
The samples were then mixed on a shaker for 1 minute and incubated for an additional 3 hours at room temperature. For each assay, the probe/antibody and protein/probe/antibody were included on each assay plate as negative and positive controls, respectively. Fluorescence was measured on the Envision (Perkin Elmer) using a 340/35 nm excitation filter and 520/525 (F-Bak peptide) and 495/510 nm (Tb-labeled anti-Histidine antibody) emission filters.
The inhibition constant (Ki) is the dissociation constant of an enzyme-inhibitor complex or a protein/small molecule complex, wherein the small molecule is inhibiting binding of one protein to another protein or peptide. […] Inhibition constants were determined using Wang's equation (Wang Z-X., An Exact Mathematical Expression For Describing Competitive Binding Of Two Different Ligands To A Protein Molecule. FEBS Lett. 1995, 360:111-4).

`CC1(C)CCC(CN2CCN(c3ccc(C(=O)NS(=O)(=O)c4ccc(NC5CCN(Cc6cscn6)CC5)c([N+](=O)[O-])c4)c(Oc4ccc5[nH]ccc5c4)c3)CC2)=C(c2ccc(Cl)cc2)C1` [EXAMPLE 231, 4-(4-{[2-(4-chlorophenyl)-4,4-dimethylcyclohex-1-en-1-yl]methyl}piperazin-1-yl)-2-(1H-indol-5-yloxy)-N-[(3-nitro-4-{[1-(1,3-thiazol-4-ylmethyl)piperidin-4-yl]amino}phenyl)sulfonyl]benzamide] was tested, and the “Binding selectivity ratio (Bcl-XL Ki/Bcl-2 Ki)” value (“Binding selectivity ratio” for short) was over 718.8.

With `COCCNc1ccc(S(=O)(=O)NC(=O)c2ccc(N3CCN(CC4=C(c5ccc(Cl)cc5)CC(C)(C)CC4)CC3)cc2Oc2cccc3[nH]ccc23)cc1S(=O)(=O)C(F)(F)F` [EXAMPLE 309, 4-(4-{[2-(4-chlorophenyl)-4,4-dimethylcyclohex-1-en-1-yl]methyl}piperazin-1-yl)-2-(1H-indol-4-yloxy)-N-({4-[(2-methoxyethyl)amino]-3-[(trifluoromethyl)sulfonyl]phenyl}sulfonyl)benzamide] the “Binding selectivity ratio” value was over 149.4.

With `CC1(C)CCC(CN2CCN(c3ccc(C(=O)NS(=O)(=O)c4ccc(NC5CCN(C6Cc7ccccc7C6)CC5)c([N+](=O)[O-])c4)c(Oc4cccc5[nH]ccc45)c3)CC2)=C(c2ccc(Cl)cc2)C1` [EXAMPLE 227, 4-(4-{[2-(4-chlorophenyl)-4,4-dimethylcyclohex-1-en-1-yl]methyl}piperazin-1-yl)-N-[(4-{[1-(2,3-dihydro-1H-inden-2-yl)piperidin-4-yl]amino}-3-nitrophenyl)sulfonyl]-2-(1H-indol-4-yloxy)benzamide] the “Binding selectivity ratio” value was over 96.6.

In the case of `CC1(C)CCC(CN2CCN(c3ccc(C(=O)NS(=O)(=O)c4ccc(NCC5CCN(C(=O)OCc6ccccc6)CC5)c([N+](=O)[O-])c4)c(Oc4ccc5[nH]ccc5c4)c3)CC2)=C(c2ccc(Cl)cc2)C1` [EXAMPLE 356, benzyl 4-({[4-({[4-(4-{[2-(4-chlorophenyl)-4,4-dimethylcyclohex-1-en-1-yl]methyl}piperazin-1-yl)-2-(1H-indol-5-yloxy)benzoyl]amino}sulfonyl)-2-nitrophenyl]amino}methyl)piperidine-1-carboxylate], the “Binding selectivity ratio” value is reported as over 131.6.

For `CC1(C)CCC(CN2CCN(c3ccc(C(=O)NS(=O)(=O)c4ccc(NCC5CCC(F)(F)CC5)c([N+](=O)[O-])c4)c(Oc4cccc5[nH]ncc45)c3)CC2)=C(c2ccc(Cl)cc2)C1` [EXAMPLE 412, 4-(4-{[2-(4-chlorophenyl)-4,4-dimethylcyclohex-1-en-1-yl]methyl}piperazin-1-yl)-N-[(4-{[(4,4-difluorocyclohexyl)methyl]amino}-3-nitrophenyl)sulfonyl]-2-(1H-indazol-4-yloxy)benzamide], the “Binding selectivity ratio” value was 6545.

In the case of `CC1(C)CCC(CN2CCN(c3ccc(C(=O)NS(=O)(=O)c4ccc(NCC5(N)CCOCC5)c([N+](=O)[O-])c4)c(Oc4cccc5[nH]ccc45)c3)CC2)=C(c2ccc(Cl)cc2)C1` [Example 176, N-[(4-{[(4-aminotetrahydro-2H-pyran-4-yl)methyl]amino}-3-nitrophenyl)sulfonyl]-4-(4-{[2-(4-chlorophenyl)-4,4-dimethylcyclohex-1-en-1-yl]methyl}piperazin-1-yl)-2-(1H-indol-4-yloxy)benzamide], the “Binding selectivity ratio” value is reported as 177.8.

For `O=C(NS(=O)(=O)c1ccc(NCC2CCOCC2)c([N+](=O)[O-])c1)c1ccc(N2CCN(CC3=C(c4ccc(Cl)cc4)CCC(N4CCOCC4)C3)CC2)cc1Oc1ccc2[nH]ccc2c1` (stereo not drawn) [EXAMPLE 249, 4-(4-{[2-(4-chlorophenyl)-5-morpholin-4-ylcyclohex-1-en-1-yl]methyl}piperazin-1-yl)-2-(1H-indol-5-yloxy)-N-({3-nitro-4-[(tetrahydro-2H-pyran-4-ylmethyl)amino]phenyl}sulfonyl)benzamide], the “Binding selectivity ratio” value was over 7302.0.

`CC1(C)CCC(CN2CCN(c3ccc(C(=O)NS(=O)(=O)c4cnc(OCC5CCOCC5)c(Cl)c4)c(Oc4cccc5[nH]ncc45)c3)CC2)=C(c2ccc(Cl)cc2)C1` [EXAMPLE 427, 4-(4-{[2-(4-chlorophenyl)-4,4-dimethylcyclohex-1-en-1-yl]methyl}piperazin-1-yl)-N-{[5-chloro-6-(tetrahydro-2H-pyran-4-ylmethoxy)pyridin-3-yl]sulfonyl}-2-(1H-indazol-4-yloxy)benzamide] was tested, and the “Binding selectivity ratio” value was 34408.55031.

In the case of `CC(C)n1cc(CN2CCN(c3ccc(C(=O)NS(=O)(=O)c4ccc(NCC5CCOCC5)c([N+](=O)[O-])c4)c(Oc4ccc5[nH]ccc5c4)c3)CC2)c(-c2ccc(Cl)cc2)cc1=O` [EXAMPLE 307, 4-(4-{[4-(4-chlorophenyl)-1-isopropyl-6-oxo-1,6-dihydropyridin-3-yl]methyl}piperazin-1-yl)-2-(1H-indol-5-yloxy)-N-({3-nitro-4-[(tetrahydro-2H-pyran-4-ylmethyl)amino]phenyl}sulfonyl)benzamide], the “Binding selectivity ratio” value is reported as over 177.1.

For `CNc1ccc(S(=O)(=O)NC(=O)c2ccc(N3CCN(CC4=C(c5ccc(Cl)cc5)CC(C)(C)CC4)CC3)cc2Oc2ccc3[nH]ccc3c2)cc1[N+](=O)[O-]` [EXAMPLE 245, 4-(4-{[2-(4-chlorophenyl)-4,4-dimethylcyclohex-1-en-1-yl]methyl}piperazin-1-yl)-2-(1H-indol-5-yloxy)-N-{[4-(methylamino)-3-nitrophenyl]sulfonyl}benzamide], the “Binding selectivity ratio” value was over 408.2.

For `CC1(C)CN(c2ccc(S(=O)(=O)NC(=O)c3ccc(N4CCN(Cc5ccccc5-c5ccc(Cl)cc5)CC4)cc3Oc3ccccc3)cc2)C1=O` [Example 30, 4-{4-[(4′-chloro-1,1′-biphenyl-2-yl)methyl]piperazin-1-yl}-N-{[4-(3,3-dimethyl-2-oxoazetidin-1-yl)phenyl]sulfonyl}-2-phenoxybenzamide], the “Binding selectivity ratio” value was over 6.4.

With `C[C@H](Nc1ccc(S(=O)(=O)NC(=O)c2ccc(N3CCN(CC4=C(c5ccc(Cl)cc5)CC(C)(C)CC4)CC3)cc2Oc2ccc3[nH]ccc3c2)cc1[N+](=O)[O-])c1ccccc1` [EXAMPLE 378, 4-(4-{[2-(4-chlorophenyl)-4,4-dimethylcyclohex-1-en-1-yl]methyl}piperazin-1-yl)-2-(1H-indol-5-yloxy)-N-[(3-nitro-4-{[(1S)-1-phenylethyl]amino}phenyl)sulfonyl]benzamide] the “Binding selectivity ratio” value was over 10.5.

`CC1(C)CCC(CN2CCN(c3ccc(C(=O)NS(=O)(=O)c4ccc(NCC5CN(CC#N)CCO5)c([N+](=O)[O-])c4)c(Oc4cccc5[nH]cnc45)c3)CC2)=C(c2ccc(Cl)cc2)C1` (stereo not drawn) [EXAMPLE 431, 2-(1H-benzimidazol-4-yloxy)-4-(4-{[2-(4-chlorophenyl)-4,4-dimethylcyclohex-1-en-1-yl]methyl}piperazin-1-yl)-N-{[4-({[4-(cyanomethyl)morpholin-2-yl]methyl}amino)-3-nitrophenyl]sulfonyl}benzamide] was tested, and the “Binding selectivity ratio” value was 677.36.

In the case of `CC1(C)CCC(CN2CCN(c3ccc(C(=O)NS(=O)(=O)c4cnc(NCC5(F)CCOCC5)c(Cl)c4)c(Oc4cccc5[nH]ncc45)c3)CC2)=C(c2ccc(Cl)cc2)C1` [EXAMPLE 413, N-[(5-chloro-6-{[(4-fluorotetrahydro-2H-pyran-4-yl)methyl]amino}pyridin-3-yl)sulfonyl]-4-(4-{[2-(4-chlorophenyl)-4,4-dimethylcyclohex-1-en-1-yl]methyl}piperazin-1-yl)-2-(1H-indazol-4-yloxy)benzamide], the “Binding selectivity ratio” value is reported as 803.8.

`CC(C)(C)c1ccc(CN2CCN(c3ccc(C(=O)NS(=O)(=O)c4ccc(OCC5CCOCC5)c([N+](=O)[O-])c4)c(Oc4ccc5[nH]ccc5c4)c3)CC2)c(-c2ccc(Cl)cc2)c1` [EXAMPLE 342, 4-{4-[(5-tert-butyl-4′-chloro-1,1′-biphenyl-2-yl)methyl]piperazin-1-yl}-2-(1H-indol-5-yloxy)-N-{[3-nitro-4-(tetrahydro-2H-pyran-4-ylmethoxy)phenyl]sulfonyl}benzamide] was tested, and the “Binding selectivity ratio” value was over 25.6.

For `CC1(C)CCC(CN2CCN(c3ccc(C(=O)NS(=O)(=O)c4ccc(NCC5(F)CCOCC5)c([N+](=O)[O-])c4)c(Oc4cccc5[nH]cnc45)c3)CC2)=C(c2ccc(Cl)cc2)C1` [EXAMPLE 441, 2-(1H-benzimidazol-4-yloxy)-4-(4-{[2-(4-chlorophenyl)-4,4-dimethylcyclohex-1-en-1-yl]methyl}piperazin-1-yl)-N-[(4-{[(4-fluorotetrahydro-2H-pyran-4-yl)methyl]amino}-3-nitrophenyl)sulfonyl]benzamide], the “Binding selectivity ratio” value was 2421.9.

For `CC1(C)CCC(CN2CCN(c3ccc(C(=O)NS(=O)(=O)c4ccc(S(=O)(=O)N5CCOCC5)cc4)c(Oc4ccc5[nH]ccc5c4)c3)CC2)=C(c2ccc(Cl)cc2)C1` [EXAMPLE 361, 4-(4-{[2-(4-chlorophenyl)-4,4-dimethylcyclohex-1-en-1-yl]methyl}piperazin-1-yl)-2-(1H-indol-5-yloxy)-N-{[4-(morpholin-4-ylsulfonyl)phenyl]sulfonyl}benzamide], the “Binding selectivity ratio” value was over 92.6.

With `CC1(C)CCC(CN2CCN(c3ccc(C(=O)NS(=O)(=O)c4ccc(NCC5(F)CCOCC5)c([N+](=O)[O-])c4)c(Oc4cccc5[nH]ncc45)c3)CC2)=C(c2ccc(Cl)cc2)C1` [EXAMPLE 409, 4-(4-{[2-(4-chlorophenyl)-4,4-dimethylcyclohex-1-en-1-yl]methyl}piperazin-1-yl)-N-[(4-{[(4-fluorotetrahydro-2H-pyran-4-yl)methyl]amino}-3-nitrophenyl)sulfonyl]-2-(1H-indazol-4-yloxy)benzamide] the “Binding selectivity ratio” value was 1748.5.
